The source of these data is ChEMBL document CHEMBL1130332, “Synthesis of (+)- and ()-2-methylarachidonyl-2-fluoroethylamide (O-689)” (Bioorg Med Chem Lett, 1997).

Test [1] addresses T1, Cannabinoid receptor 1 (Rattus norvegicus, UniProt P20272). Briefly: Compound was evaluated for binding affinity to displace [3H]CP-55940 radioligand from cannabinoid receptor in rat brain P2 membrane. In kind it is cell membranes.
Test [2] deals with T1, Cannabinoid receptor 1. The test is described as follows: Compound was evaluated for binding affinity towards cannabinoid receptor in rat brain P2 membrane. In kind it is cell membranes.
The subject of test [3] is Mus musculus. Briefly: Tested for ring immobility in mouse upon intravenous administration. In kind it is functional.
Test [4] relates to Mus musculus. The test is described as follows: Tested for hypothermia in mouse upon intravenous administration. In kind it is functional.
Test [5] concerns Mus musculus. Briefly: Tested for in vivo inhibition of locomotor activity in mouse upon intravenous administration. In kind it is functional.
For test [6], the system named is Mus musculus. The test is described as follows: Tested for in vivo […] by tail-flick method in mouse upon intravenous administration. The format is functional.

The term Ki denotes a dissociation constant, usually derived from enzyme kinetics or from competition with a known ligand. High values mean weaker binding, low ones tighter binding. The ED50 is the dose that gives a 50% effect, or the effect in half of the subjects. High values mean weaker potency, low ones greater potency.

Each structure is given as a SMILES string. “And” between values parts separate entries of the source, which are not always exact repeats. Identical values can stand only once.

T1 sequence (P20272 whole entry): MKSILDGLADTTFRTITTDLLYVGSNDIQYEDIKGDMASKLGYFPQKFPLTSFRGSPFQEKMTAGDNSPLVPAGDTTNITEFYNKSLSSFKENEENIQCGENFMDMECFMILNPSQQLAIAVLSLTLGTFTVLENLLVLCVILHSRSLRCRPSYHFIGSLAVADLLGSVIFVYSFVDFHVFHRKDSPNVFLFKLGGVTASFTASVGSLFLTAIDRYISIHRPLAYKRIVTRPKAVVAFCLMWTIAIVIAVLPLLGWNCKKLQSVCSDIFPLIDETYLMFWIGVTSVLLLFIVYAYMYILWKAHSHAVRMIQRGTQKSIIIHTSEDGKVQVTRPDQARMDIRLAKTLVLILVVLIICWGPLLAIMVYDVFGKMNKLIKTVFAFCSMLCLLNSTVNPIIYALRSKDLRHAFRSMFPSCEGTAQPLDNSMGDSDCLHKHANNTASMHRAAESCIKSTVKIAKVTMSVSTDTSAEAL

As for `CCCCC/C=C\C/C=C\C/C=C\C/C=C\CCC(C)C(=O)NCCF` (racemic), the figures for the Ki at Cannabinoid receptor 1 [1] and at Cannabinoid receptor 1 [2] were 21.2 nM and 5.7 nM, respectively. In addition, the ED50 in the test with Mus musculus [3] was 1.6 mg/kg; in the test on Mus musculus [4] it was 2.73 mg/kg; in the test with Mus musculus [5], 1.85 mg/kg and 4.78 mg/kg.

For `CCCCC/C=C\C/C=C\C/C=C\C/C=C\CCC(C)C(=O)NCCF` (single isomer, unassigned; (-)), the affinity on Cannabinoid receptor 1 [1], expressed as Ki, was 15.3 nM. Also, the ED50 worked out at 2.93 mg/kg in the test on Mus musculus [3], 10.1 mg/kg in the test on Mus musculus [4], 1.34 mg/kg with Mus musculus [6] and 2.3 mg/kg with Mus musculus [5].

As for `CCCCC/C=C\C/C=C\C/C=C\C/C=C\CCC(C)C(=O)NCCF` (stereo in doubt; (+)-4a), affinity on Cannabinoid receptor 1 [1] was put at a Ki of 22.4 nM. For the same compound, the ED50 stood at 5.27 mg/kg with Mus musculus [3], 2.49 mg/kg in the test with Mus musculus [4], 2.56 mg/kg in the test with Mus musculus [6] and 10.2 mg/kg with Mus musculus [5].
